As a reminder, the IC50 is the concentration needed to halve the response being measured.

The values that follow come from publication PMC12651750 (Cells, 2025).

For assay [1], the system named is Jurkat cells. The assay is described as follows: Western blot of protein levels. It counts as cell-based, human. Particulars: 0.2, 1, 5 µM, 48 h. As to the method:
Jurkat cells were stimulated with NBU-2 (0.2 µM, 1 µM, 5 µM) and DMSO, respectively, for 48 h. Cells were lysed by the addition of appropriate RIPA Lysis Buffer (containing protease inhibitors and phosphatase inhibitors), and protein concentrations were determined using the BCA assay. Centrifuge the above cell lysates at 12,000× g for 10 min at 4 °C and retain the supernatant. After diluting the samples to the same concentration with lysate, add the corresponding volume of SDS-PAGE protein uploading buffer (5×), and the proteins were denatured by boiling at 100 °C for 10 min. According to the molecular weight of the target protein, we selected the corresponding concentration of the gel for electrophoresis. After electrophoresis, the proteins on the gel were transferred to the PVDF membrane. The transfer time could be adjusted appropriately according to the molecular weight of the proteins. Subsequently, the corresponding protein primary antibody was taken, and the corresponding antibody was diluted according to the instructions and incubated overnight at 4 °C on a shaker. The following day, it was conjugated to the secondary antibody. The protein bands were then visualized under the ChemiDoc system using the chemiluminescent developer. Antibodies HDAC1 (Cat#10197-1-AP), HDAC6 (Cat#12834-1-AP), Bax (Cat#60267-1-1), BAD (Cat#10435-1-AP), Bcl-2 (Cat#12789-1-AP), Bcl-xl (Cat#10783-1-AP), Caspase3/P17/P19 (Cat#19677-1-AP), Caspase8/P43/P18 (Cat#13423-1-AP), and P21 (Cat#10355-1-AP) were purchased from Wuhan, China. Antibody actin (Cat#21338-1) was purchased from SAB, China. Acetyl-Histone H3 (Cat#AF1684), Acetyl-Histone H4 (Cat#AJ4218), Phos-AKT1 (Cat#AF1546), CDK4 (Cat#AF2515), Cyclin D1 (Cat#AF0126), and Phos-RB1 (Cat#AF1135) were purchased from Beyotime International, Nantong, China. H3 (Cat#A2348) and Caspase3 (A19653) were purchased from ABclonal, Wuhan, China. Cleaved-Caspase9 (Cat#52873T) was purchased from Cell Signal Technology, Danvers, MA, USA.
For orientation: A western blot detects proteins with antibodies after separation by electrophoresis.

For a further assay, the target named is T1, HDAC6 (Homo sapiens, UniProt Q9UBN7).
T1 sequence (Q9UBN7 1-1215): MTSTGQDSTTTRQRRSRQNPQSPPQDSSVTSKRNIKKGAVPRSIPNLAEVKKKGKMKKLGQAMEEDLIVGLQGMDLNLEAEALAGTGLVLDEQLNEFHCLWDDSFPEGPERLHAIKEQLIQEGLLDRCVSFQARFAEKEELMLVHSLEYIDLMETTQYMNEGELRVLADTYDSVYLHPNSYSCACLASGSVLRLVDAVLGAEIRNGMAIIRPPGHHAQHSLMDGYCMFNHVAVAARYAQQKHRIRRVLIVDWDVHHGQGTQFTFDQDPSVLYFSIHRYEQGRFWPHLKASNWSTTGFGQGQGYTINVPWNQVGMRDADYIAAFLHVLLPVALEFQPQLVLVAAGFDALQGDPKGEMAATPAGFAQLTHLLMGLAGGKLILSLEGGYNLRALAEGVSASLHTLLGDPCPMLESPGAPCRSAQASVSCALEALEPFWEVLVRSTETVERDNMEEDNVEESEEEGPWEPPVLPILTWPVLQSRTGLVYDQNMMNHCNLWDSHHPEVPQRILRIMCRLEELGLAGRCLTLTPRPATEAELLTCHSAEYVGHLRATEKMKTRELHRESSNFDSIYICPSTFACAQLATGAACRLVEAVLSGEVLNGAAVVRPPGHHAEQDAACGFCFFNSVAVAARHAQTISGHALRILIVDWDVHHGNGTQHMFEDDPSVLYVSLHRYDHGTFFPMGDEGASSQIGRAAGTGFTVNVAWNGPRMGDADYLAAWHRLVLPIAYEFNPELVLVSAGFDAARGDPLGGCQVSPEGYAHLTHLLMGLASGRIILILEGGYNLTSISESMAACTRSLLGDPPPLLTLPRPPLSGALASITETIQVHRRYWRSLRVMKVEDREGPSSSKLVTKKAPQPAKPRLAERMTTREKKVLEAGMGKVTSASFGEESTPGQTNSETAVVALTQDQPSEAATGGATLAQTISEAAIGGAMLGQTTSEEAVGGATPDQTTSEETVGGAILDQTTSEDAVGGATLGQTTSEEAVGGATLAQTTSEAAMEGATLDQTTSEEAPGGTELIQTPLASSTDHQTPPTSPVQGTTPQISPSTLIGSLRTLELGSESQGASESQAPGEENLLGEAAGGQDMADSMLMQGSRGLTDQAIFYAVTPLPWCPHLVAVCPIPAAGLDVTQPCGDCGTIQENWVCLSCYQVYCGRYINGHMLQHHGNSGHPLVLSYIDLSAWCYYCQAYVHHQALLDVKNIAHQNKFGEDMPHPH
The assay is described as follows: In vitro HDAC enzymatic inhibition assay (HDAC kit, fluorescence).

Assay [2] deals with Jurkat cells. Description: Annexin V-FITC/PI apoptosis assay (flow cytometry). It counts as cell-based, human. As to conditions: 48 h. How it is done:
Apoptosis was assessed using an Annexin V-FITC Apoptosis Detection Kit according to the manufacturer’s instructions. Briefly, cells were double-stained with fluorescein isothiocyanate (FITC)-conjugated Annexin V and propidium iodide (PI). Jurkat cells were cultured to the appropriate density. Three sets of concentration gradients, namely 0.2 μM, 1 μM, and 5 μM, were established while DMSO was used as the control. The Jurkat cells were cultured for 48 h. Centrifuge at 1000× g for 5 min to precipitate the cells. We collected the cells, added the staining solution according to the instructions of the Annexin V-FITC Apoptosis Detection Kit to complete the staining, and immediately tested the cells on Flow cytometry.
A general note: In flow cytometry, cells or beads pass a laser one at a time.

For another assay, the target named is HDAC1 (Homo sapiens, UniProt Q13547). The assay is described as follows: In vitro HDAC enzymatic inhibition assay (HDAC kit, fluorescence).

Each structure is given as a SMILES string.

Sequence of HDAC1 (Q13547 whole entry): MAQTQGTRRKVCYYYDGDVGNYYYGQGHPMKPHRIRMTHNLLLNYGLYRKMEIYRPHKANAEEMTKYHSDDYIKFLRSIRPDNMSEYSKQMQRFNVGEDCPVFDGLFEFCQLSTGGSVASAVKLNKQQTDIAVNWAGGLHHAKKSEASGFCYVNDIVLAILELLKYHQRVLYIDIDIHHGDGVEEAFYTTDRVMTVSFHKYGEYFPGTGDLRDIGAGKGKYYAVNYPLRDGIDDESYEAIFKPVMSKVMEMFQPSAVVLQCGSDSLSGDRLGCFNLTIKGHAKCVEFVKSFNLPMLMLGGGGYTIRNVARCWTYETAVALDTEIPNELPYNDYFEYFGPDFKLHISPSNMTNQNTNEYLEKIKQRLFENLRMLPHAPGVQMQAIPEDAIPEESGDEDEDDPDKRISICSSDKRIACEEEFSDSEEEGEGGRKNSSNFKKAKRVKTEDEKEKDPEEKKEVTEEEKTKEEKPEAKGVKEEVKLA
Description for HDAC1: (§1) Enzymatic assays were performed by Shanghai ChemPartner according to the HDAC kit protocol. […] Fluorescence was recorded at 355 nm excitation and 460 nm emission on a Synergy MX reader (PerkinElmer Life Sciences, Boston, MA, USA). IC50 values were derived from dose–response curves.
Description for HDAC6: as §1

On to `Cc1cccc2c(=O)c3c(NCCCCCC(=O)NO)ccc([N+](=O)[O-])c3[nH]c12` [NBU-2, N-hydroxy-6-((5-methyl-4-nitro-9-oxo-9,10-dihydroacridin-1-yl)amino)hexanamide], for which, in the assay with Jurkat cells [1], the Ac-H4 level entry is listed as “no significant change”, the BAD expression entry is reported as “unaffected”, the Bcl-2 expression entry is “reduced” and the Bcl-XL expression entry is “reduced”. Also, in the assay on Jurkat cells [1], the “Caspase-3 (prototype) expression” value is on record as “did not affect”, the “Caspase-8 (prototype) expression” value was “did not affect”, the “Caspase-9 (prototype) expression” value is “did not affect” and the “HDAC1 protein expression level” value is recorded as “not affected”. For the same molecule, in the assay with Jurkat cells [1], the “HDAC6 protein expression level” value was “not affected”, the “Protein level of p-Akt (Ser473)” value is reported as “significantly reduced” and the “Total histone H3” value is reported as “not affected”. In addition, in the assay on Jurkat cells [1] (concentration-dependent), the CDK4 expression result is given as “inhibited”, the “Cyclin D1 expression” value is given as “inhibited”, the “Intracellular Ac-H3 protein level” value is given as “significantly increased” and the p21 expression entry is reported as “increased”. The BAX expression result in the assay on Jurkat cells [1] (with concentration) is “increased”. In the assay on Jurkat cells [1] (with increasing concentration), the Cleaved-Caspase-3 expression result was “increased”, the Cleaved-Caspase-9 expression result is on record as “increased” and the p-Rb expression entry is listed as “decreased”. For the same molecule, at HDAC6, the IC50 stood at 7.34 ± 0.6 nM. The “Percentage of cells in early apoptotic stage (Q3)” value (“Percentage of cells” below) in the assay with Jurkat cells [2] (0.2 μM) was determined as 11.5%. In the assay on Jurkat cells [2] (1 μM), the “Percentage of cells” value is reported as 16.1%. In the assay with Jurkat cells [2] (5 μM), the “Percentage of cells” value was 84.7%. This molecule also returned an IC50 on HDAC1 of 7.75 ± 0.57 nM.
